From PubChem BioAssay AID2060499 (Molecular Pharmacology Branch, DTP, NCI, 2025)

Tested on: 777334-354-R2-J4-PDC tumor spheroids with HUVEC/MSC, viability
Assay: Anticancer human tumor 777334-354-R2-J4-PDC patient-derived pancreatic adenocarcinoma cell line growth inhibition [GQUAD]
Settings: for IC50: curve of first compound; for viability, T/C: stronger effect = lower value
Source text: DNA G-quadruplex Stabilizer Agents in Combinations in Complex Spheroids
A high-throughput screen of multi-cell type tumor spheroids was designed to identify active combinations of DNA G-quadruplex stabilizer agents and targeted small molecules. Complex spheroids include a stromal component modeled by human endothelial cells (HUVEC) and fibroblasts modeled by human mesenchymal stem cells (MSCs). The concentration ranges selected for each drug and investigational agent were based upon clinically achievable concentrations if the clinical Cmax of the agent was known.
Compounds. The drugs and investigational agents: pidnarulex (CX-5461; NSC782164), APTO-253 (NSC789042), BRACO-19 (NSC847499), peposertib (NSC802822), ceralasertib (NSC780249), elimusertib (NSC800525), camonsertib (NSC841442), AZD-1390 (NSC803789), olaparib (NSC753686), talazoparib (NSC767125), ART-558 (NSC835418), sotorasib (NSC818433), MRTX-1133 (NSC836407), SN-38 (NSC673596), topotecan (NSC609699), etoposide (NSC141540), doxorubicin (NSC123127), gemcitabine (NSC613327), 5-fluorouracil (NSC19893), paclitaxel (NSC125973), vemurafenib (NSC761431), panobinostat (NSC761190), R-306465 (JNJ-16241199; NSC773264), adavosertib (NSC754352), TP-3654 (NSC805149), carboplatin (NSC241240), KSQ-4279 (NSC840948), and staurosporine (NSC755774) were obtained from the National Cancer Institute (NCI) Developmental Therapeutics Program Chemical Repository (34). The FDA-approved anticancer drug set is available from the NCI Developmental Therapeutics Program. […] The stock solutions were prepared in dimethyl sulfoxide (DMSO, Sigma-Aldrich, St. Louis, MO, cat. D2650) at 800-fold the tested concentration and stored at -70 degrees C prior to their use. All drugs and investigational agents were tested over a range starting from a high concentration at or near the clinical Cmax and decreasing in half-log increments. If the clinical Cmax for an agent had not been determined, the highest concentration tested was 10 microM.
2.3 Cell Culture. All cells were maintained in an incubator at 37 degrees C and 5% CO2 with 95% humidity. The PDC lines were cultured according to standard operating procedures established by the NCI PDMR. All PDCs were thawed and cultured in Matrigel-coated flasks prepared with a working solution of 1X Ham's F-12 nutrient mix, without supplementation (Invitrogen, cat. 11765054), 100 U/mL penicillin-streptomycin (Invitrogen, cat. 15140122), and 2.5% Matrigel (Corning Inc., cat. 354248) for the first three passages. The 857933-349-R-J2-PDC line was cultured in 6C/Colon 1B media, which includes advanced DMEM/F-12 (Thermo Fisher Scientific, cat. 12634028), 10 mM HEPES (Thermo Fisher Scientific, cat. 15630080), 1X GlutaMAX supplement (Thermo Fisher Scientific, cat. 35050061), 0.1 mg/mL primocin (InvivoGen, cat. ant-pm-2), 10% defined fetal bovine serum, heat inactivated (HyClone Laboratories Inc., cat. SH30070.03HI), 50% L-WRN conditioned media (ATCC, cat. CRL-3276), 1.25 mM N-Acetyl-L-cysteine (Sigma-Aldrich, cat. A9165), 10 mM nicotinamide (Sigma-Aldrich, cat. N0636), 1X B-27 supplement (Thermo Fisher Scientific, cat. 17504044), 1X N-2 supplement (Thermo Fisher Scientific, cat. 17502048), 10 microM Y-27632 dihydrochloride (Tocris Bioscience, cat. 1254), and 50 ng/mL human EGF recombinant protein (Thermo Fisher Scientific, cat. PHG0311). The 485176-168-R4-J1-PDC line was cultured in Panc media, which includes all 6C/Colon 1B media components plus 100 ng/mL human FGF-10 (Thermo Fisher Scientific, cat. 100-26), 500 nM SB-431542 (Selleckchem, cat. S1067), and gastrin (Tocris, cat. 3006).
[…]

[1] = second compound 0.0316 µM, first compound 0.0316 µM
[2] = second compound 0.0316 µM, first compound 0.1 µM
[3] = second compound 0.0316 µM, first compound 0.316 µM
[4] = second compound 0.0316 µM, first compound 1 µM
[5] = second compound 0.0316 µM, first compound 3.16 µM
[6] = second compound 0.0316 µM, first compound 10 µM
[7] = second compound 0.1 µM, first compound 0.0316 µM
[8] = second compound 0.1 µM, first compound 0.1 µM
[9] = second compound 0.1 µM, first compound 0.316 µM
[10] = second compound 0.1 µM, first compound 1 µM
[11] = second compound 0.1 µM, first compound 3.16 µM
[12] = second compound 0.1 µM, first compound 10 µM
[13] = second compound 0.316 µM, first compound 0.0316 µM
[14] = second compound 0.316 µM, first compound 0.1 µM
[15] = second compound 0.316 µM, first compound 0.316 µM
[16] = second compound 0.316 µM, first compound 1 µM
[17] = second compound 0.316 µM, first compound 3.16 µM
[18] = second compound 0.316 µM, first compound 10 µM
[19] = second compound 1 µM, first compound 0.0316 µM
[20] = second compound 1 µM, first compound 0.1 µM
[21] = second compound 1 µM, first compound 0.316 µM
[22] = second compound 1 µM, first compound 1 µM
[23] = second compound 1 µM, first compound 3.16 µM
[24] = second compound 1 µM, first compound 10 µM
[25] = second compound 3.16 µM, first compound 0.0316 µM
[26] = second compound 3.16 µM, first compound 0.1 µM
[27] = second compound 3.16 µM, first compound 0.316 µM
[28] = second compound 3.16 µM, first compound 1 µM
[29] = second compound 3.16 µM, first compound 3.16 µM
[30] = second compound 3.16 µM, first compound 10 µM
[31] = second compound 10 µM, first compound 0.0316 µM
[32] = second compound 10 µM, first compound 0.1 µM
[33] = second compound 10 µM, first compound 0.316 µM
[34] = second compound 10 µM, first compound 1 µM
[35] = second compound 10 µM, first compound 3.16 µM
[36] = second compound 10 µM, first compound 10 µM
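Further: spheroids exposed to compounds for 7 days before readout.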

CCCS(=O)(=O)Nc1ccc(F)c(C(=O)c2c[nH]c3ncc(-c4ccc(Cl)cc4)cc23)c1F + Cc1[nH]c2ccc(F)cc2c1-c1nc2c3cccnc3c3ncccc3c2[nH]1
IC50 (second compound 0.0316 µM): 7750 nM
IC50 (second compound 0.1 µM): 8350 nM
IC50 (second compound 0.316 µM): 7780 nM
IC50 (second compound 1 µM): 7020 nM
IC50 (second compound 3.16 µM): < 31.6 nM
IC50 (second compound 10 µM): < 31.6 nM
viability, T/C [1]: 108%
viability, T/C [2]: 108%
viability, T/C [3]: 114%
viability, T/C [4]: 111%
viability, T/C [5]: 124%
viability, T/C [6]: 32%
viability, T/C [7]: 111%
viability, T/C [8]: 104%
viability, T/C [9]: 109%
viability, T/C [10]: 122%
viability, T/C [11]: 130%
viability, T/C [12]: 38%
viability, T/C [13]: 94.7%
viability, T/C [14]: 102%
viability, T/C [15]: 96.2%
viability, T/C [16]: 126%
viability, T/C [17]: 117%
viability, T/C [18]: 33.9%
viability, T/C [19]: 79.8%
viability, T/C [20]: 99.4%
viability, T/C [21]: 92.4%
viability, T/C [22]: 109%
viability, T/C [23]: 111%
viability, T/C [24]: 28.5%
viability, T/C [25]: 50.2%
viability, T/C [26]: 46.1%
viability, T/C [27]: 33.2%
viability, T/C [28]: 30.6%
viability, T/C [29]: 38.5%
viability, T/C [30]: 13.8%
viability, T/C [31]: 44.3%
viability, T/C [32]: 31.9%
viability, T/C [33]: 43.8%
viability, T/C [34]: 28.8%
viability, T/C [35]: 28.4%
viability, T/C [36]: 15.8%

CC1COCCN1c1cc(-c2ccnn2C)c2ccnc(-c3ccn[nH]3)c2n1 (centres undefined) + Cc1cnc(CNC(=O)c2c(=O)c3ccc(N4CCCN(C)CC4)nc3n3c2sc2ccccc23)cn1
IC50 (second compound 0.0316 µM): 143 nM
IC50 (second compound 0.1 µM): 240 nM
IC50 (second compound 0.316 µM): 331 nM
IC50 (second compound 1 µM): < 31.6 nM
IC50 (second compound 3.16 µM): < 31.6 nM
IC50 (second compound 10 µM): < 31.6 nM
viability, T/C [1]: 73.2%
viability, T/C [2]: 50.8%
viability, T/C [3]: 45.5%
viability, T/C [4]: 41.7%
viability, T/C [5]: 43.1%
viability, T/C [6]: 34.5%
viability, T/C [7]: 59.8%
viability, T/C [8]: 51.3%
viability, T/C [9]: 47.8%
viability, T/C [10]: 41.9%
viability, T/C [11]: 44.1%
viability, T/C [12]: 28.7%
viability, T/C [13]: 56%
viability, T/C [14]: 59.3%
viability, T/C [15]: 48.6%
viability, T/C [16]: 41.8%
viability, T/C [17]: 38.6%
viability, T/C [18]: 26.9%
viability, T/C [19]: 48.3%
viability, T/C [20]: 44.1%
viability, T/C [21]: 52.8%
viability, T/C [22]: 41.8%
viability, T/C [23]: 36.2%
viability, T/C [24]: 27.5%
viability, T/C [25]: 44.5%
viability, T/C [26]: 41%
viability, T/C [27]: 41.7%
viability, T/C [28]: 41.3%
viability, T/C [29]: 29.6%
viability, T/C [30]: 20%
viability, T/C [31]: 42.8%
viability, T/C [32]: 39.8%
viability, T/C [33]: 44.7%
viability, T/C [34]: 36.9%
viability, T/C [35]: 32.5%
viability, T/C [36]: 21.2%
